Assays:
[1] = target: Tropomyosin receptor kinase A (TRKA, NTRK1) (Homo sapiens (Human), UniProt P04629); assay: TRKA (NTRK1) enzyme Z'-LYTE assay; type: biochemical; conditions: arithmetic mean of count n; test compound 1 uM, ATP 1 mM
Description: Tropomyosin Receptor Kinase a (TRKA) Activity, % Inhibition
TRKA, also known as neurotrophic tyrosine kinase receptor type 1 (NTKR1) activity was determined by measuring the effect of a test compound on the activity against the NTRK1 enzyme using the ThermoFisher Z'-LYTE Assay fluorescence-based coupled enzyme format (www.thermofisher.com/selectscreen). […] The resulting effect value for the tested compound was compared to the assay controls to determine the % inhibition (%).

[2] = tested on: IL-2 in activated CD4+ human T-cells; assay: IL-2 inhibition in supernatants from activated CD4+ human T-cells (cisbio HTRF); type: cell-based; conditions: T-cell; geometric mean of count n; CD3/CD28-expanded human CD4+ T cells stimulated with ImmunoCult, 20 to 24 hrs
Description: IL-2-Inhibition Activity, IC50 (uM)
IL-2 inhibition activity in supernatants from activated CD4+ human T-cells was determined by measuring the effect of a test compound on the activity using the cisbio HTRF™ technology.
Human CD4+ T cells were activated with CD3/CD28 for 3 days and expanded for an additional 4-6 days (7 to 9 days total). On day 0, frozen CD4+ T cells were thawed, treated with CD3/CD28 Dynabeads, and incubated at 37° C./5% CO2. On day 3, the beads were removed, and the cells were diluted to 5×10^5 cells/cm^2, placed in G-Rex10 flask, and incubated at 37° C./5% CO2. On day 7 to day 9 the cells were removed from the G-Rex flasks, counted and diluted back to 1×10^6 cells/ml in standard tissue culture flask.
The expanded CD4+ T-cells were centrifuged at 300×g for 10 minutes and resuspended to 0.5 million cells per ml (30,000 cells/well). 60 μl of CD4+ T cells were added per well to a 384 well plate containing 0.1 μL of varying concentrations of test compound in DMSO. The plates were incubated for 15 min at 37° C./5% CO2. 20 μl of diluted ImmunoCult™ ([…] Technologies, 1:12.5 in T cell assay media) were added to all wells of the plate (1:50 final assay concentration). The plates were incubated for an additional 20 to 24 hrs at 37° C./5% CO2. The plates were centrifuged at 300×g for 10 minutes. 16 μL of supernatant was removed and combined with 4 μl of IL-2 HTRF Abs. (cisbio kit). Plates were incubated for 3 hours at RT and read with an EnVision plate reader at 665 nm and 615 nm wavelengths.

Chain of Tropomyosin receptor kinase A (TRKA, NTRK1) (P04629 33-796): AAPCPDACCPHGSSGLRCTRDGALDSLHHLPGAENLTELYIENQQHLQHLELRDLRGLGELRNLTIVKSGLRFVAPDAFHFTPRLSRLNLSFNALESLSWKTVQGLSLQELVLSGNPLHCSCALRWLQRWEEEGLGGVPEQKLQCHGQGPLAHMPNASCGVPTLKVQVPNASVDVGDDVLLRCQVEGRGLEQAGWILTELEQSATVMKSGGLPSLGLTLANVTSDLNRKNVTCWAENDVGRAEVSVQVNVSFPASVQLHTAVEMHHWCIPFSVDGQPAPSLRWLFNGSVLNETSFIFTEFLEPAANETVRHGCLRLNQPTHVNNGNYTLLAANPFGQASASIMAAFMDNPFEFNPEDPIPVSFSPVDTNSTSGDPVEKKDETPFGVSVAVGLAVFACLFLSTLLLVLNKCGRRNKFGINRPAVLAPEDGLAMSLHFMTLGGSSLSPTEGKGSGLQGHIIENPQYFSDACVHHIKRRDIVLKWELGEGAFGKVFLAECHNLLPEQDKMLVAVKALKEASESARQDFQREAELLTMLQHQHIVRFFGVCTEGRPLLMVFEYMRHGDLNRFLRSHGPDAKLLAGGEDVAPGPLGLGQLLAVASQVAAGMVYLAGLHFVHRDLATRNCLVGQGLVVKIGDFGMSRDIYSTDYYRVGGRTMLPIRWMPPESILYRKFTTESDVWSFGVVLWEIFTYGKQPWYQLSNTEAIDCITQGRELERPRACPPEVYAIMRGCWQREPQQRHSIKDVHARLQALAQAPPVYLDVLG

| Compound | inhibition at 1 µM [1] [%] | IC50 [2] [µM] |
| --- | --- | --- |
| CCN(C(=O)[C@H](C)N1CCOCC1)c1cc2nc(-c3n[nH]c4c3C[C@@H]3C[C@]3(C)C4)[nH]c2cc1C [Example 6, (S)—N-ethyl-N-(6-methyl-2-((4aS,5aR)-5a-methyl-1,4,4a,5,5a,6-hexahydrocyclopropa[f]indazol-3-yl)-1H-benzo[d]imidazol-5-yl)-2-morpholinopropanamide] | 102 | 0.101 |
| CN(C(=O)CC1CCOCC1)c1ccc2[nH]c(-c3n[nH]c4c3C[C@@H]3C[C@]3(C)C4)nc2c1 [Example 10, N-methyl-N-(2-((4aS,5aR)-5a-methyl-1,4,4a,5,5a,6-hexahydrocyclopropa[f]indazol-3-yl)-1H-benzo[d]imidazol-5-yl)-2-(tetrahydro-2H-pyran-4-yl)acetamide] | 104 | 0.067 |
| CCN(C(=O)[C@H](C)N1CCOCC1)c1cc(F)c2[nH]c(-c3n[nH]c4c3C[C@@H]3C[C@]3(C)C4)nc2c1 [Example 16, (S)—N-ethyl-N-(7-fluoro-2-((4aS,5aR)-5a-methyl-1,4,4a,5,5a,6-hexahydrocyclopropa[f]indazol-3-yl)-1H-benzo[d]imidazol-5-yl)-2-morpholinopropanamide] | 116 | 0.065 |
| COc1cc2[nH]c(-c3n[nH]c4c3C[C@@H]3C[C@]3(C)C4)nc2cc1N(C)C(=O)[C@H](C)N1CCOCC1 [Example 19, (S)—N-(6-methoxy-2-((4aS,5aR)-5a-methyl-1,4,4a,5,5a,6-hexahydrocyclopropa[f]indazol-3-yl)-1H-benzo[d]imidazol-5-yl)-N-methyl-2-morpholinopropanamide] | 98 | 0.057 |
| C[C@@H](C(=O)N(C)c1cc2nc(-c3n[nH]c4c3C[C@@H]3C[C@]3(C)C4)[nH]c2cc1Br)N1CCOCC1 [Example 20, (S)—N-(6-bromo-2-((4aS,5aR)-5a-methyl-1,4,4a,5,5a,6-hexahydrocyclopropa[f]indazol-3-yl)-1H-benzo[d]imidazol-5-yl)-N-methyl-2-morpholinopropanamide] | 98 | 0.053 |
| C[C@@H](C(=O)N(C)c1cc2nc(-c3n[nH]c4c3C[C@@H]3C[C@]3(C)C4)[nH]c2cc1C#N)N1CCOCC1 [Example 21, (S)—N-(6-cyano-2-((4aS,5aR)-5a-methyl-1,4,4a,5,5a,6-hexahydrocyclopropa[f]indazol-3-yl)-1H-benzo[d]imidazol-5-yl)-N-methyl-2-morpholinopropanamide] | 91 | 0.098 |
| Cc1cc2[nH]c(-c3n[nH]c4c3C[C@@H]3C[C@]3(C)C4)nc2cc1N(C)C(=O)CN1CCO[C@@H](CO)C1 [Example 28, 2-((R)-2-(Hydroxymethyl)morpholino)-N-methyl-N-(6-methyl-2-((4aS,5aR)-5a-methyl-1,4,4a,5,5a,6-hexahydrocyclopropa[f]indazol-3-yl)-1H-benzo[d]imidazol-5-yl)acetamide] | – | 0.305 |
| Cc1cc2[nH]c(-c3n[nH]c4c3C[C@@H]3C[C@]3(C)C4)nc2cc1N(C)C(=O)CN1CCOC(C)(C)C1 [Example 29, 2-(2,2-Dimethylmorpholino)-N-methyl-N-(6-methyl-2-((4aS,5aR)-5a-methyl-1,4,4a,5,5a,6-hexahydrocyclopropa[f]indazol-3-yl)-1H-benzo[d]imidazol-5-yl)acetamide] | – | 0.058 |
| Cc1cc2[nH]c(-c3n[nH]c4c3C[C@@H]3C[C@]3(C)C4)nc2cc1N(C)C(=O)CN1CCO[C@H](C)C1 [Example 30, N-Methyl-N-(6-methyl-2-((4aS,5aR)-5a-methyl-1,4,4a,5,5a,6-hexahydrocyclopropa[f]indazol-3-yl)-1H-benzo[d]imidazol-5-yl)-2-((R)-2-methylmorpholino)acetamide] | – | 0.082 |
| Cc1cc2[nH]c(-c3n[nH]c4c3C[C@@H]3C[C@]3(C)C4)nc2cc1N(C)C(=O)CN1C[C@H](C)O[C@@H](C)C1 [Example 33, 2-((2S,6S)-2,6-Dimethylmorpholino)-N-methyl-N-(6-methyl-2-((4aS,5aR)-5a-methyl-1,4,4a,5,5a,6-hexahydrocyclopropa[f]indazol-3-yl)-1H-benzo[d]imidazol-5-yl)acetamide] | – | 0.068 |
| Cc1cc2[nH]c(-c3n[nH]c4c3C[C@@H]3C[C@]3(C)C4)nc2cc1N(C)C(=O)CN1CCOCC1=O [Example 36, N-Methyl-N-(6-methyl-2-((4aS,5aR)-5a-methyl-1,4,4a,5,5a,6-hexahydrocyclopropa[f]indazol-3-yl)-1H-benzo[d]imidazol-5-yl)-2-(3-oxomorpholino)acetamide] | – | 0.096 |
| C[C@@H](C(=O)N(C)c1cc(O)c2[nH]c(-c3n[nH]c4c3C[C@@H]3C[C@]3(C)C4)nc2c1)N1CCOCC1 [Example 39, (S)—N-(7-hydroxy-2-((4aS,5aR)-5a-methyl-1,4,4a,5,5a,6-hexahydrocyclopropa[f]indazol-3-yl)-1H-benzo[d]imidazol-5-yl)-N-methyl-2-morpholinopropanamide] | – | 0.082 |
| CN(C(=O)CC1CCOCC1)c1cc2nc(-c3n[nH]c4c3C[C@@H]3C[C@]3(C)C4)[nH]c2cc1C#N [Example 54, N-(6-cyano-2-((4aS,5aR)-5a-methyl-1,4,4a,5,5a,6-hexahydrocyclopropa[f]indazol-3-yl)-1H-benzo[d]imidazol-5-yl)-N-methyl-2-(tetrahydro-2H-pyran-4-yl)acetamide] | – | 4.57 |

These reach a lower IC50 [2]. Values come first.

| inhibition at 1 µM [1] [%] | IC50 [2] [µM] | Compound |
| --- | --- | --- |
| 95 | 0.022 | Cc1cc2[nH]c(-c3n[nH]c4c3C[C@@H]3C[C@]3(C)C4)nc2cc1N(C)C(=O)[C@H](C)C1CCOCC1 [Example 4, (R)—N-methyl-N-(6-methyl-2-((4aS,5aR)-5a-methyl-1,4,4a,5,5a,6-hexahydrocyclopropa[f]indazol-3-yl)-1H-benzo[d]imidazol-5-yl)-2-(tetrahydro-2H-pyran-4-yl)propanamide] |
| 94 | 0.025 | C[C@@H](C(=O)N(C)c1cc(F)c2[nH]c(-c3n[nH]c4c3C[C@@H]3C[C@]3(C)C4)nc2c1)C1CCOCC1 [Example 12, (R)—N-(7-fluoro-2-((4aS,5aR)-5a-methyl-1,4,4a,5,5a,6-hexahydrocyclopropa[f]indazol-3-yl)-1H-benzo[d]imidazol-5-yl)-N-methyl-2-(tetrahydro-2H-pyran-4-yl)propanamide] |
| 99 | 0.003 | C[C@@H](C(=O)N(C)c1ccc2[nH]c(-c3n[nH]c4c3C[C@@H]3C(F)(F)[C@]3(C)C4)nc2c1)N1CCOCC1 [Example 13, (S)—N-(2-((4aS,5aR)-5,5-difluoro-5a-methyl-1,4,4a,5,5a,6-hexahydrocyclopropa[f]indazol-3-yl)-1H-benzo[d]imidazol-5-yl)-N-methyl-2-morpholinopropanamide] |
| 92 | 0.042 | C[C@@H](C(=O)N(C)c1ccc2[nH]c(-c3n[nH]c4c3C[C@@H]3C[C@]3(C)C4)nc2c1)N1CCOCC1 [Example 14, (S)—N-methyl-N-(2-((4aS,5aR)-5a-methyl-1,4,4a,5,5a,6-hexahydrocyclopropa[f]indazol-3-yl)-1H-benzo[d]imidazol-5-yl)-2-morpholinopropanamide] |
| 107 | 0.042 | C[C@@H](C(=O)N(C)c1cc(F)c2[nH]c(-c3n[nH]c4c3C[C@@H]3C[C@]3(C)C4)nc2c1)N1CCOCC1 [Example 15, (S)—N-(7-fluoro-2-((4aS,5aR)-5a-methyl-1,4,4a,5,5a,6-hexahydrocyclopropa[f]indazol-3-yl)-1H-benzo[d]imidazol-5-yl)-N-methyl-2-morpholinopropanamide] |
| – | 0.05 | Cc1cc2[nH]c(-c3n[nH]c4c3C[C@@H]3C[C@]3(C)C4)nc2cc1N(C)C(=O)CC1CCOCC1 [Example 35, N-Methyl-N-(6-methyl-2-((4aS,5aR)-5a-methyl-1,4,4a,5,5a,6-hexahydrocyclopropa[f]indazol-3-yl)-1H-benzo[d]imidazol-5-yl)-2-(tetrahydro-2H-pyran-4-yl)acetamide] |
| – | 0.047 | Cc1c(N(C)C(=O)[C@H](C)N2CCOCC2)cc2nc(-c3n[nH]c4c3C[C@@H]3C[C@]3(C)C4)[nH]c2c1F [Example 46, (S)—N-(7-fluoro-6-methyl-2-((4aS,5aR)-5a-methyl-1,4,4a,5,5a,6-hexahydrocyclopropa[f]indazol-3-yl)-1H-benzo[d]imidazol-5-yl)-N-methyl-2-morpholinopropanamide] |
| – | 0.01 | Cc1cc2[nH]c(-c3n[nH]c4c3C[C@@H]3C(F)(F)[C@]3(C)C4)nc2cc1N(C)C(=O)[C@H](C)N1CCOCC1 [Example 53, (S)—N-(2-((4aS,5aR)-5,5-difluoro-5a-methyl-1,4,4a,5,5a,6-hexahydrocyclopropa[f]indazol-3-yl)-5-methyl-1H-benzo[d]imidazol-6-yl)-N-methyl-2-morpholinopropanamide] |
